Where “and” joins values, the source holds several entries; their conditions need not be identical. Equal values may be shown once. Toxic doses and inconclusive results are not listed.
Tested on: L1210 leukemia ip in BDF1 mice, survival T/C
Assay: NCI In Vivo Anticancer Drug Screen. Data for tumor model L1210 Leukemia (intraperitoneal) in B6D2F1 (BDF1) mice
Conditions: endpoint: mean survival time, higher = longer survival
Method in brief: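 In this screen, tumor-bearing mice given compound are compared to those given vehicle, and their survival values are reported as a treated-to-control quotient.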

[1] = dose: 100.0 mg/kg/injection, schedule: Q01DX009 (ip), vehicle: Klucel (hydroxypropylcellulose) (HPC)
[2] = dose: 200.0 mg/kg/injection, schedule: Q01DX009 (ip), vehicle: Klucel (hydroxypropylcellulose) (HPC)
[3] = dose: 100.0 mg/kg/injection, schedule: Q01DX009 (ip), vehicle: saline with Tween-80
[4] = dose: 200.0 mg/kg/injection, schedule: Q01DX009 (ip), vehicle: saline with Tween-80
[5] = dose: 400.0 mg/kg/injection, schedule: Q01DX009 (ip), vehicle: saline with Tween-80

For `O=C(O)c1c(Cl)cccc1[N+](=O)[O-]`, the T/C (dose: 100.0 mg/kg/injection, schedule: Q01DX001 (ip), vehicle: saline) was 100 % of control, the T/C (dose: 200.0 mg/kg/injection, schedule: Q01DX001 (ip), vehicle: saline) was 96 % of control and the T/C (dose: 400.0 mg/kg/injection, schedule: Q01DX001 (ip), vehicle: saline) was 102 % of control.

With `O=C(Nc1ccccc1F)Oc1ccc(Cl)cc1Cl` the T/C (dose: 50.0 mg/kg/injection, schedule: Q01DX009 (ip), vehicle: Klucel (hydroxypropylcellulose) (HPC)) was 114 % of control, the T/C [1] was 111 % of control and the T/C (dose: 100.0 mg/kg/injection, schedule: Q04DX002 (ip), vehicle: Klucel (hydroxypropylcellulose) (HPC)) was 105 % of control. For the same molecule, the T/C [2] was 102 % of control and the T/C (dose: 200.0 mg/kg/injection, schedule: Q04DX002 (ip), vehicle: Klucel (hydroxypropylcellulose) (HPC)) was 102 % of control.

`C=C1C(=O)OC2C1C(OC(=O)/C(C)=C/COC(C)=O)CC1(CO1)C1C(O)C=C(C)C21` (stereo unspecified) was tested, and the T/C (dose: 12.5 mg/kg/injection, schedule: Q01DX009 (ip), vehicle: alcohol) was 103 % of control, the T/C (dose: 25.0 mg/kg/injection, schedule: Q01DX009 (ip), vehicle: alcohol) was 105 % of control and the T/C (dose: 50.0 mg/kg/injection, schedule: Q01DX009 (ip), vehicle: alcohol) was 105 % of control and 107 % of control.

In the case of `O=C1C(=O)c2ccccc2C([O-])=C1[n+]1ccccc1`, the T/C (dose: 50.0 mg/kg/injection, schedule: Q01DX009 (ip), vehicle: saline with Tween-80) is reported as 97 % of control, the T/C (dose: 50.0 mg/kg/injection, schedule: Q04DX003 (ip), vehicle: saline with Tween-80) is reported as 103 % of control and the T/C [3] is reported as 95 % of control. The T/C (dose: 100.0 mg/kg/injection, schedule: Q04DX003 (ip), vehicle: saline with Tween-80) was 97 % of control, the T/C [4] was 93 % of control and the T/C (dose: 200.0 mg/kg/injection, schedule: Q04DX003 (ip), vehicle: saline with Tween-80) was 98 % of control.

With `Clc1cccc(Nc2nc(Cl)nc(C(Cl)(Cl)Cl)c2Cl)c1` the T/C [3] was 88 % of control, the T/C [4] was 94 % of control and the T/C [5] was 88 % of control.

For `CC(C)C(=O)OCC1OC(n2cnc3c(=S)nc[nH]c32)C(OC(=O)C(C)C)C1OC(=O)C(C)C` (stereo unspecified), the T/C (dose: 2.5 mg/kg/injection, schedule: Q01DX Z (oral), vehicle: carboxymethylcellulose (CMC)) was 101 % of control, the T/C (dose: 5.0 mg/kg/injection, schedule: Q01DX Z (oral), vehicle: carboxymethylcellulose (CMC)) was 95 % of control and the T/C (dose: 10.0 mg/kg/injection, schedule: Q01DX Z (oral), vehicle: carboxymethylcellulose (CMC)) was 97 % of control. For the same molecule, the T/C (dose: 20.0 mg/kg/injection, schedule: Q01DX Z (oral), vehicle: carboxymethylcellulose (CMC)) was 100 % of control.

With `COc1ccc(C(C#N)CC(=O)c2ccc(OC)c(OCc3ccccc3)c2)cc1OC` (stereo unspecified) the T/C (dose: 25.0 mg/kg/injection, schedule: Q01DX009 (ip), vehicle: saline) was 96 % of control, the T/C (dose: 50.0 mg/kg/injection, schedule: Q01DX009 (ip), vehicle: saline) was 102 % of control and the T/C (dose: 100.0 mg/kg/injection, schedule: Q01DX009 (ip), vehicle: saline) was 101 % of control. For the same molecule, the T/C (dose: 200.0 mg/kg/injection, schedule: Q01DX009 (ip), vehicle: saline) was 101 % of control.

In the case of `O[C@H](CN1CC1)[C@@H](O)CN1CC1`, the T/C (dose: 0.05 mg/kg/injection, schedule: Q01DX010 (oral), vehicle: other) is reported as 114 % of control, the T/C (dose: 0.05 mg/kg/injection, schedule: Q01DX010 (oral), vehicle: saline) is reported as 111 % of control and the T/C (dose: 0.05 mg/kg/injection, schedule: Q01DX Z (ip), vehicle: methylcellulose (MC)) is reported as 154 % of control. For the same molecule, the T/C (dose: 0.1 mg/kg/injection, schedule: Q01DX010 (oral), vehicle: saline) was 118 % of control, the T/C (dose: 0.1 mg/kg/injection, schedule: Q01DX Z (ip), vehicle: methylcellulose (MC)) was 87 % of control and the T/C (dose: 0.1 mg/kg/injection, schedule: Q01DX Z (oral), vehicle: saline) was 101 % of control. The T/C (dose: 0.13 mg/kg/injection, schedule: Q01DX009 (ip), vehicle: saline) was 187 % of control and 192 % of control, the T/C (dose: 0.2 mg/kg/injection, schedule: Q01DX010 (oral), vehicle: other) was 157 % of control and the T/C (dose: 0.25 mg/kg/injection, schedule: Q01DX009 (ip), vehicle: saline) was 204 % of control and 206 % of control. For the same molecule, the T/C (dose: 0.3 mg/kg/injection, schedule: Q01DX Z (oral), vehicle: saline) was 111 % of control, the T/C (dose: 0.4 mg/kg/injection, schedule: Q01DX010 (oral), vehicle: saline) was 164 % of control and the T/C (dose: 0.44 mg/kg/injection, schedule: Q01DX Z (oral), vehicle: saline) was 172 % of control. The T/C (dose: 0.5 mg/kg/injection, schedule: Q01DX009 (ip), vehicle: saline) was 221 % of control and 257 % of control, the T/C (dose: 0.66 mg/kg/injection, schedule: Q01DX Z (oral), vehicle: saline) was 182 % of control and the T/C (dose: 0.8 mg/kg/injection, schedule: Q01DX010 (oral), vehicle: other) was 88 % of control. The T/C (dose: 0.8 mg/kg/injection, schedule: Q01DX010 (oral), vehicle: saline) was 108 % of control, the T/C (dose: 1.0 mg/kg/injection, schedule: Q01DX009 (ip), vehicle: saline) was 104 % of control and 88 % of control and the T/C (dose: 1.0 mg/kg/injection, schedule: Q01DX Z (ip), vehicle: methylcellulose (MC)) was 121 % of control. For the same molecule, the T/C (dose: 1.0 mg/kg/injection, schedule: Q01DX Z (oral), vehicle: saline) was 122 % of control and the T/C (dose: 1.5 mg/kg/injection, schedule: Q01DX Z (oral), vehicle: saline) was 97 % of control.

With `Cc1ccc([N+](=O)[O-])cc1NC(=O)NCc1ccc(Cl)cc1` the T/C [3] was 87 % of control, the T/C [4] was 106 % of control and the T/C [5] was 95 % of control.

With `CC1(C)CCC2=C1CC[C@H]1[C@H]2CCC2=CC(=O)CC[C@@]21C` the T/C (dose: 50.0 mg/kg/injection, schedule: Q01DX001 (sc), vehicle: steriod suspending solution) was 102 % of control, the T/C (dose: 100.0 mg/kg/injection, schedule: Q01DX001 (sc), vehicle: steriod suspending solution) was 96 % of control and the T/C (dose: 200.0 mg/kg/injection, schedule: Q01DX001 (sc), vehicle: steriod suspending solution) was 102 % of control. The T/C (dose: 400.0 mg/kg/injection, schedule: Q01DX001 (sc), vehicle: steriod suspending solution) was 102 % of control.

For `CCOP(=S)(N1CCNCC1)N1CCNCC1`, the T/C (dose: 75.0 mg/kg/injection, schedule: Q01DX001 (ip), vehicle: saline) was 90 % of control, the T/C (dose: 75.0 mg/kg/injection, schedule: Q01DX009 (ip), vehicle: Klucel (hydroxypropylcellulose) (HPC)) was 95 % of control and the T/C (dose: 150.0 mg/kg/injection, schedule: Q01DX001 (ip), vehicle: saline) was 92 % of control. For the same molecule, the T/C (dose: 150.0 mg/kg/injection, schedule: Q01DX009 (ip), vehicle: Klucel (hydroxypropylcellulose) (HPC)) was 120 % of control and the T/C (dose: 300.0 mg/kg/injection, schedule: Q01DX001 (ip), vehicle: saline) was 100 % of control.

For `CC1CC(C)NC(=S)N1` (stereo unspecified), the T/C (dose: 50.0 mg/kg/injection, schedule: Q04DX002 (ip), vehicle: saline with Tween-80) was 98 % of control, the T/C (dose: 100.0 mg/kg/injection, schedule: Q04DX002 (ip), vehicle: saline with Tween-80) was 102 % of control and the T/C (dose: 200.0 mg/kg/injection, schedule: Q04DX002 (ip), vehicle: saline with Tween-80) was 98 % of control.

`CC(/C(=N\N=C(N)N)c1ccccc1)N(C)C` (stereo unspecified) was tested, and the T/C (dose: 15.0 mg/kg/injection, schedule: Q01DX Z (ip), vehicle: methylcellulose (MC)) was 94 % of control, the T/C (dose: 30.0 mg/kg/injection, schedule: Q01DX Z (ip), vehicle: methylcellulose (MC)) was 108 % of control and the T/C (dose: 50.0 mg/kg/injection, schedule: Q01DX Z (oral), vehicle: methylcellulose (MC)) was 100 % of control. The T/C (dose: 60.0 mg/kg/injection, schedule: Q01DX Z (ip), vehicle: methylcellulose (MC)) was 95 % of control, the T/C (dose: 100.0 mg/kg/injection, schedule: Q01DX Z (oral), vehicle: methylcellulose (MC)) was 86 % of control and the T/C (dose: 120.0 mg/kg/injection, schedule: Q01DX Z (ip), vehicle: methylcellulose (MC)) was 88 % of control.

With `OCC1C=CCC=C1` the T/C (dose: 100.0 mg/kg/injection, schedule: Q04DX003 (ip), vehicle: saline) was 100 % of control, the T/C (dose: 200.0 mg/kg/injection, schedule: Q04DX003 (ip), vehicle: saline) was 98 % of control and the T/C (dose: 400.0 mg/kg/injection, schedule: Q04DX003 (ip), vehicle: saline) was 93 % of control.

In the case of `CCCCNC(=O)Nc1ccc(C)c(Cl)c1`, the T/C [1] is reported as 96 % of control, the T/C (dose: 100.0 mg/kg/injection, schedule: Q04DX003 (ip), vehicle: Klucel (hydroxypropylcellulose) (HPC)) is reported as 94 % of control and the T/C [2] is reported as 94 % of control. The T/C (dose: 200.0 mg/kg/injection, schedule: Q04DX003 (ip), vehicle: Klucel (hydroxypropylcellulose) (HPC)) was 94 % of control, the T/C (dose: 400.0 mg/kg/injection, schedule: Q01DX009 (ip), vehicle: Klucel (hydroxypropylcellulose) (HPC)) was 89 % of control and the T/C (dose: 400.0 mg/kg/injection, schedule: Q04DX003 (ip), vehicle: Klucel (hydroxypropylcellulose) (HPC)) was 100 % of control.

With `NC(=O)Cc1cccc(=O)[nH]1` the T/C (dose: 100.0 mg/kg/injection, schedule: Q01DX001 (ip), vehicle: Klucel (hydroxypropylcellulose) (HPC)) was 100 % of control, the T/C (dose: 200.0 mg/kg/injection, schedule: Q01DX001 (ip), vehicle: Klucel (hydroxypropylcellulose) (HPC)) was 97 % of control and the T/C (dose: 400.0 mg/kg/injection, schedule: Q01DX001 (ip), vehicle: Klucel (hydroxypropylcellulose) (HPC)) was 95 % of control.

— PubChem BioAssay AID248 (DTP/NCI, 2004)
